The text below walks through data of patent publication US4151283A, “6-Methyl-and 1,6-dimethyl-8β-carbobenzyloxy-aminomethyl-10α-ergoline as inhibitors of prolactin secretion” (Societa' Farmaceutici Italia S.p.A., priority 1977, dated 1979).

In data set [1] the test system is nidation (implantation sites). Description: Nidation inhibition in rats (anti-nidation activity). Format: in vivo, rat (Sprague-Dowley strain). The conditions noted are these: Rattus norvegicus, methane-sulphonic salt, given on 3rd day, approximate (.congruent.). The method, then: Adult female rats, of the Sprague-Dowley strain, in proestrus were mated with fertile males and their vaginal smears were examined the next morning.
The presence of spermatozoa was considered evidence of impregnation and onset of pregnancy (day 1).
The compounds were administered orally or intraperitoneally as methane-sulphonic salts to groups of six to eight rats on the 3rd day.
On the 14th day the animals were sacrificed and the uterus was examined for the presence of implantation sites.
The absence of implantation sites was the criterion of activity.
Several doses were tested for the ED50 evaluation.

For data set [2], the system named is lactation. Description: Lactation inhibition in rats (anti-lactation activity). Format: in vivo. As to conditions: Rattus norvegicus, po, methane-sulfonic salt, 6th and 7th days, approximate (.congruent.); read-out: ED50, lactation inhibition (50% reduction of gain in weight of the litters). The method, then:
Adult pregnant female rats were individually caged about 6 days before parturition. The day after parturition (day 1), the number of pups was adjusted to eight. The gain in weight of the litters was measured daily.
The test compounds as methane-sulfonic salts were administered orally to groups of eight mother rats on the 6th and 7th days immediately after the weighing of the litters. The control mothers were treated with the vehicle alone.
The percentage of lactation inhibition was calculated from the mean gain in weight of the litters on the 7th and 8th days in comparison with the results for the 5th and 6th days.
No lactation inhibition was present on the 7th and 8th days in the vehicle-treated (control) group.
The doses capable of reducing to 50% the gain in weight of the litters (ED50) are reported below in Table II.

Another data set can be described thus: Emetic activity in dogs. Format: in vivo, dog (male beagle). As to conditions: dog, in vivo, methane-sulphonic salt, approximate (.congruent.), read-out: ED50, emetic activity; for TD50 at 2 h: iv, observed 2 hours; for TD50 at 6 h: po, observed 6 hours. The method, then: (§1) The emetic activity of the compounds was examined by intravenous and oral administration to male beagle dogs weighing 15-20 kg. The compounds were administered as the methane-sulphonic salts. […] Five to six animals per dose were employed for the ED50 evaluation.

Another data set relates to emesis. Description: Emetic activity in dogs. Format: in vivo, dog (male beagle). The conditions noted are these: dogs, both routes of administration (Table III), in words. As for the experimental part: as §1
In data set [3] the test system is prolactin (PRL) release. As to conditions: cited from earlier work.
Data set [4] relates to lactation. As to conditions: in rats, literature (Fluckiger and Wagner 1968), in words; cited from earlier work.
The next data set concerns prolactin. As to conditions: literature (Brooks and Welsch 1974), in words; cited from earlier work.
Data set [5] relates to nidation (implantation sites). The conditions noted are these: in rats, literature (Fluckiger and Wagner 1968), in words; cited from earlier work.
For data set [6], the system named is puerperal lactation. As to conditions: comparison drug, no own test described; cited from earlier work.
Data set [7] relates to puerperal lactation. Description: Inhibition of puerperal lactation in women (clinical evaluation). Format: in vivo, human (puerperal women). As for the experimental part:
The invention concerns a novel method of inhibiting lactation in puerperal women by administering metergoline.
Metergoline was administered at a dose of 8 mg/day (4 mg at 0.800 and 4 mg at 2000) to these women: 10 women were treated with a placebo.

For data set [8], the system named is prolactin (PRL) release. The conditions noted are these: cited from earlier work. This is another data set of the same source.

In general, ED50 refers to the dose at which the effect has come halfway, by size or by number of responders. For the compound `CN1C[C@H](CNC(=O)OCc2ccccc2)C[C@@H]2c3cccc4[nH]cc(c34)C[C@H]21` [1-Demethyl-metergoline, 6-Methyl-8β-carbobenzyloxy-aminomethyl-10α-ergoline], in data set [1] (po), the 50% effective dose (ED50) was 4 to 8 mg/kg. For the same compound, in the data set with lactation [2], the ED50 fell in the range of 4 to 8 mg/kg. Moreover, in the data set “Emetic activity in dogs”, the TD50 at 2 h is 0.05 to 0.1 mg/kg and the TD50 at 6 h fell in the range of 0.2 to 0.4 mg/kg. In addition, the “emetic tolerability versus reference standard III” value with emesis was “clearly better tolerated than the reference standard III”.

For `N[C@@H](Cc1c[nH]c2ccc(O)cc12)C(=O)O` [5 hydroxytryptophan], the “effect on PRL release in man” value with prolactin (PRL) release [3] is reported as “stimulates PRL release”.

Consider `CC(C)C[C@H]1C(=O)N2CCC[C@H]2[C@]2(O)O[C@](NC(=O)[C@@H]3C=C4c5cccc6[nH]c(Br)c(c56)C[C@H]4N(C)C3)(C(C)C)C(=O)N12` [Bromocriptine, 2-Br-α-ergocriptine, reference compound], for which the ED50 was in the range of 16 to 32 mg/kg in data set [1] (ip), 8 to 16 mg/kg in [1] (po) and 8 to 16 mg/kg in the data set on lactation [2]. Further, the anti-lactation activity result in the data set with lactation [4] was “well known both for its anti-nidation and anti-lactation activity in rats”. Besides, the anti-prolactin activity result in the data set with prolactin is “anti-prolactin activity”. Besides, the anti-nidation activity result in data set [5] is “well known both for its anti-nidation and anti-lactation activity in rats”. In addition, the treatment period required with puerperal lactation [6] is 14 days. Also, the TD50 at 2 h in the data set “Emetic activity in dogs” is approximately 0.007 mg/kg. Also, the TD50 at 6 h in “Emetic activity in dogs” is less than 0.03 mg/kg.

For the compound `CN1C[C@H](CNC(=O)OCc2ccccc2)C[C@@H]2c3cccc4c3c(cn4C)C[C@H]21` [Metergoline, 1,6-Dimethyl-8β-carbobenzyloxy-aminomethyl-10α-ergoline], the ED50 in data set [1] (ip) was 16 to 32 mg/kg; in data set [1] (po) it was approximately 25 mg/kg; in the data set with lactation [2], 12.5 to 25 mg/kg. Moreover, the “women in whom five days of treatment prevented or suppressed lactation” value with puerperal lactation [7] (8 mg/day (4 mg twice), 5 days) is 69 women. The “remaining women in whom a second course definitely inhibited every sign of mammary activity” value in the data set with puerperal lactation [7] (8 mg/day, second course of 5 additional days) turned out to be 9 women. Also, the “cases in which the necessary treatment period is 5 days” value in the data set with puerperal lactation [7] (5 days of treatment) was 88.5%. In the data set on puerperal lactation [7] (in 88.5% of cases), the treatment period necessary was found to be 5 days. The tolerability / side-effects entry with puerperal lactation [7] (women, 8 mg/day, in words) is “perfectly tolerated and devoid of any side-effect”. Moreover, the TD50 at 2 h in the data set “Emetic activity in dogs” was more than 8 mg/kg. Also, the TD50 at 6 h in the data set “Emetic activity in dogs” was 4 to 8 mg/kg. Further, in the data set on emesis, the “emetic tolerability versus reference standard III” value is given as “clearly better tolerated than the reference standard III”.

Turning to `CC[C@@H](CO)NC(=O)[C@@H]1C=C2c3cccc4c3c(cn4C)C[C@H]2N(C)C1` [methysergide], in the data set on prolactin (PRL) release [3] (in man), the “effect on 5-hydroxytryptophan-stimulated PRL release” value was “partially inhibited”.

On to `NCCc1c[nH]c2ccc(O)cc12` [serotonin (5HT), 5-hydroxytryptamine], for which, in the data set on prolactin (PRL) release [8], the “effect on PRL release in animals” value is “stimulates prolactin (PRL) release”.
